Measurements published in patent US20220338470A1, “AGRICULTURAL COMPOSITIONS FOR IMPROVED CROP PRODUCTIVITY AND ENHANCED PHENOTYPES” (Spogen Biotech Inc., priority 2018, published 2022).
Structures can show the parent of a compound that is named as a salt.

Experiments:
Type in all cases: in vivo
soybean (Asgrow AG4034) = test: R2 soybean yield, trehalose, potassium acetate and SILWET L-77; settings: for Avg. Yield (Bu/Ac): foliar at R2 soybean AG4034, three locations; for Avg. Δ in Yield (Bu/Ac): vs base seed treatment control
Description: In another experiment, large acre yield replicated trials of soybean (variety: Asgrow AG4034) were planted from seed treated with a base seed treatment package containing […]® fungicide and PONCHO®/VOTIVO® 500 in three locations in the US Midwest (IL). […] Trehalose is a non-reducing carbohydrate resistant to acid hydrolysis and stable in solution under high temperatures and acidic conditions. Trehalose was applied separately and in combination with a non-blended organosilicone surfactant ([…]-77) as a foliar spray application to soybean plants. Final concentrations at application were as follows: […]

[1] = system: corn (DKC 58-89, DKC 52-61, DKC 65-81); test: V5 corn yield, choline chloride, calcium chloride and PLURONIC F-68; settings: for Avg. Yield (Bu/Ac) Trial 1 / Avg. Yield (Bu/Ac) Trial 2: foliar at V5 corn; for Avg. Yield (Bu/Ac) Trial 1: three hybrids (* two hybrids only), trial 1, one location; for Avg. Yield (Bu/Ac) Trial 2: three hybrids; for Avg. Δ in Yield (Bu/Ac): vs base seed treatment control, average of trials 1 and 2; for yield increase compared to base seed treatment control plants: foliar at V5
Description: In a separate experiment, large acre field trials were conducted using one and two location trials in the US Midwest (IL) planted with three different corn hybrids (DEKALB: DKC 58-89; DKC 52-61; DKC 65-81). Seed from each of the corn hybrids was coated with a seed treatment of EVERGOL® fungicide combined with PONCHO®/VOTIVO® 500. Foliar treatments comprising a non-ionic polyoxyethylene-polyoxypropylene block copolymer surfactant (PLURONIC F-68, an anti-respirant), a quaternary ammonium salt (choline chloride) and/or a di-hydrated salt (calcium chloride) were applied to corn plants at the V5 stage of development. The foliar treatments were applied using the final concentrations and application use rates as described in Table 42. Choline chloride was selected for its osmolyte-like properties. Choline chloride is a precursor of acetylcholine and is involved in the regulation of water resorption in plants. Choline chloride was tested as a foliar application treatment individually and in combination an anti-respirant (PLURONIC F 68 surfactant). Average yield in Bu/Ac was reported for two trials. Trial 1 was conducted at one location and trial 2 was conducted at two locations in the US Midwest (IL). Yield (Bu/Ac) is reported as the average yield across location(s) and as the average for all three hybrids except where indicated in Table 42 and as the average change in yield (Bu/Ac) compared to the yield from the seed treatment control plants. The Base Seed Treatment control plants received only the EVERGOL® fungicide+PONCHO®/VOTIVO® 500 seed treatment and not any foliar treatments.

[2] = system: corn (Beck's hybrid 5828 YH); test: Corn growth rate under droughted conditions, alternative osmoprotectants; settings: two weeks un-watered; Anti-Respirant Control A 29.0%
Description: Stachydrine was selected as an osmoprotectant that acts as a negative control due to its functional role in the induction of nodulation (Phillips, D. A., Joseph, C. M., Maxwell, C. A., “Trigonelle and stachydrine released from alfalfa seeds activate NodD2 protein in Rhizobium meliloti” (1992) Plant Physiology 99: 1526-1531). Stachydrine acts through a different mode of action as compared to the betaine-HCl osmoprotectant. Plant growth rates under droughted conditions were compared in corn treated with foliar applications comprising betaine-HCl, strachydrine or myo-inositol (see Table 37). Corn (Beck's hybrid 5828 YH) plants were planted in an environmentally controlled growth facility and grown using the conditions described in the first paragraph of this example. At 1.5 weeks, the plants were provided with another 50 mL of water per pot and plant height was measured for each plant. Plants were then segregated to prevent any cross contamination between the foliar treatments. […] Relative percent growth rate under droughted conditions was calculated for each plant in each treatment replicate using the percent (%) growth rate equation (as provided above in this Example). […]

[3] = system: corn (Beck's hybrid 5828 YH); test: Soil drench of corn seedlings under drought, growth during V2-V3 transition; settings: for % Δ in Plant Height Compared to Control: 11 DAP to 14 DAP, vs water-only control; for change in plant height during V2 to V3 transition compared to water-only control: soil drench at planting and day 3, 11 to 14 days after planting; for Plant Growth during the transition of V2-V3 stage (11 DAP to 14 DAP): soil drench, each component 438.5 mL/hectare, droughted conditions
Description: The anti-respirant also functioned as an infiltration surfactant (above-soil surfactant or penetrant) and the anti-desiccant functioned as a humectant. […] A combined treatment with betaine-HCl (osmoprotectant), an infiltration surfactant (anti-respirant) and a humectant (anti-desiccant) was also compared with other drench treatments and a water-only control. Glycerol, a polyol compound that has three hydroxyl groups that are responsible for its solubility in water and its hydroscopic nature, was selected as a viscous humectant to combine with the betaine-HCl osmoprotectant and the infiltration surfactant. This triple treatment combination was selected based on its mode of action properties in soil drench applications that promote the retention and management of moisture by attracting moisture and condensing it for contact to the germinating seed and/or growing plant. The treatment combination was provided as a soil drench at the time of planting and again at emergence to promote rapid growth at the early V stages of development, enhance early vigor, provide for a robust stand establishment, and protect against the effects of drought during early seedling establishment. The betaine-HCl osmoprotectant was provided at a final application concentration of 83.49 mM. The infiltration surfactant was diluted in water at the recommended application use rate using a ratio of 1:1600 (surfactant to water) (52.9 μM). The humectant was provided at a final application treatment of 1% diluted in water (136.8 mM). The individual and combined treatments were provided using the application use rates (Fl. oz/Ac) as specified in Tables 54 and 55. […] In Table 55, the application use rates for all three components were the same. […] Seeds were planted at a depth of 2.54 cm, with two seeds per pot. After planting, seeds were supplied with 50 mL of the each of the treatments (as described in Tables 54 and 55) at room temperature and added to the soil in each pot as a soil drench provided at an equivalent application use rate as specified. […] After application of the second drench, the plants were left un-watered to induce and simulate droughted conditions that may occur during early seedling establishment. […] At 11 days after planting, plant height was determined for each plant in the various treatments. Corn plants provided with treatments as described in Table 55 received an additional 50 mL of water at 11 days after planting.

Compound: OC[C@H]1O[C@H](O[C@H]2O[C@H](CO)[C@@H](O)[C@H](O)[C@H]2O)[C@H](O)[C@@H](O)[C@@H]1O [trehalose]
- average change in soybean yield compared to seed treatment-only control (soybean (Asgrow AG4034); R2, trehalose 6.4 Fl. oz/Ac, SILWET L-77 3.2 Fl. oz/Ac, three locations): +1.49 Bu/Ac
- Avg. Yield (Bu/Ac) (soybean (Asgrow AG4034)): 68.3 Bu/Ac
- Avg. Δ in Yield (Bu/Ac) (soybean (Asgrow AG4034); three locations): +1.49 Bu/Ac

Compound: O.O.[Ca+2].[Cl-].[Cl-] [Calcium Chloride (dihydrate)]
- Avg. Yield (Bu/Ac) Trial 1 [1]: 201.4 Bu/Ac
- Avg. Yield (Bu/Ac) Trial 2 [1]: 169.6 Bu/Ac
- Avg. Δ in Yield (Bu/Ac) [1]: +11.8 Bu/Ac

Compound: [Ca+2].[Cl-].[Cl-] [calcium chloride]
- yield increase compared to base seed treatment control plants [1]: +11.8 Bu/Ac

Compound: C[N+](C)(C)CCO.[Cl-] [choline chloride]
- yield increase compared to base seed treatment control plants [1]: +8.5 Bu/Ac
- Avg. Yield (Bu/Ac) Trial 1 [1]: 207.3* Bu/Ac
- Avg. Yield (Bu/Ac) Trial 2 [1]: 157.2 Bu/Ac
- Avg. Δ in Yield (Bu/Ac) [1]: +8.5 Bu/Ac

Compound: O[C@H]1[C@H](O)[C@@H](O)[C@H](O)[C@@H](O)[C@H]1O [Myo-inositol, myo-inositol]
- Relative Growth Rate (%) under Droughted Conditions [2]: 31.1%

Compound: CC(=O)[O-].[K+] [Potassium Acetate]
- Avg. Yield (Bu/Ac) (soybean (Asgrow AG4034)): 67.2 Bu/Ac
- Avg. Δ in Yield (Bu/Ac) (soybean (Asgrow AG4034); three locations): +0.35 Bu/Ac

Compound: C[N+](C)(C)CC(=O)O [osmoprotectant-only control, betaine-HCl]
- % Δ in Plant Height Compared to Control [3]: +8%
- change in plant height during V2 to V3 transition compared to water-only control [3]: +8%
- Plant Growth during the transition of V2-V3 stage (11 DAP to 14 DAP) [3]: 3.11 cm

Compound: OCC(O)CO [humectant-only control, glycerol]
- % Δ in Plant Height Compared to Control [3]: +3%
- change in plant height during V2 to V3 transition compared to water-only control [3]: +3%
- Plant Growth during the transition of V2-V3 stage (11 DAP to 14 DAP) [3]: 2.98 cm
